# Test system: gluten intolerance
# Assay: treating/preventing gluten intolerance with oral loperamide (experience of the inventor)
# Type: in vivo, patient
# Conditions: dosage titrated, as long as it is the type of gluten intolerance that responds to loperamide and the proper daily dosage is adhered to
# Description: The present invention may include a new use of the existing OTC medication (generic: loperamide, brand: Immodium™) to be taken orally by patient suffering from gluten allergy/intolerance symptoms. The Loperamide is taken until the gluten allergy/intolerance symptoms are relieved.
# The amount of loperamide needed to treat/prevent the symptoms of gluten intolerance can be quite a bit higher than the levels that can cause constipation. In that case, a slow increase in dosage may be necessary in order to create a resistance to the constipatory effects. Titration may be necessary to reach the proper dosage to eliminate the symptoms, starting preferably with the standard lowest dosage of loperamide recommended to treat diarrhea (2 mg tablet after the first loose stool, 1 tablet after each subsequent loose stool) and adding 1×2 mg tablet every 6 hours until stool consistency normalizes, at which point the symptoms of gluten intolerance will disappear completely, if it is the type of gluten intolerance that is treatable with loperamide. In the experience of the inventor, the rate of successfully treating/preventing gluten intolerance completely is 100%, as long as it is the type of gluten intolerance that responds to loperamide, and the proper daily dosage is adhered to once it is determined to be effective for the patient.
smiles,measurement,value
CN(C)C(=O)C(CCN1CCC(O)(c2ccc(Cl)cc2)CC1)(c1ccccc1)c1ccccc1 [loperamide],rate of successfully treating/preventing gluten intolerance completely,100%

# Reference: patent publication US20200246322A1, “METHOD FOR TREATING GLUTEN-RELATED ALLERGIES AND I[…] WITH LOPERAMIDE” (priority 2019, published 2020)
